Experimental data published in US20250277059A1, “ANTIBODY USED TO TREAT CORONAVIRUS INFECTION” (priority 2022, published 2025).

What was measured:
[1] = test system: pseudo-typed virus having S protein of SARS COV_2 S 501Y.V2 (B.1.351: β variant); assay type: cell-based, SARS-COV-2
[2] = test system: pseudo-typed virus having S protein of SARS COV_2 S VOC202012/01 (B.1.1.7: α variant); assay type: cell-based, SARS-COV-2

## N=C(N)c1ccc2cc(OC(=O)c3ccc(N=C(N)N)cc3)ccc2c1 [Nafamostat, nafamostat]
[1]
  infection inhibiting effect on β variant-type virus: exhibited infection inhibiting effects
[2]
  infection inhibiting effect on α variant-type virus: exhibited infection inhibiting effects
